According to patent US8846733B2, “Oxazolyl-methylether derivatives as ALX receptor agonists” (Actelion Pharmaceuticals Ltd., priority 2010, dated 2014):

target: T1, recombinant human ALX receptor (Homo sapiens, UniProt P25090); assay: Intracellular calcium measurements (FLIPR), ALX receptor agonistic activity; type: cell-based; settings: HEK293-hALXR-Gα16 cells; Table 1, exemplified compounds
T1 construct: expressed in transfected cells; host or cells: HEK293 (HEK293-hALXR-Gα16)
T1 sequence (P25090 1-351): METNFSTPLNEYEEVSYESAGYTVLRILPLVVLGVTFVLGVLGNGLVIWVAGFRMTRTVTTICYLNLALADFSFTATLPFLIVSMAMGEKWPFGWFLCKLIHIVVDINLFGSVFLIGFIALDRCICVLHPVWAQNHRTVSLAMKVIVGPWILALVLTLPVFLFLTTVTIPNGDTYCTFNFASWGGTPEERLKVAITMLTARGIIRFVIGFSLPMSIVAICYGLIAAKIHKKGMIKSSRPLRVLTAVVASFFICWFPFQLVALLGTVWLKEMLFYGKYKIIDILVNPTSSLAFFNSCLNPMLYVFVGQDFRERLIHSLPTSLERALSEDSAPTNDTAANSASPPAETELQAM
Experimental: The ALX receptor agonistic activity of the compounds of formula (I) is determined in accordance with the following experimental method.
Intracellular Calcium Measurements:
Cells expressing recombinant human ALX receptor and the G-protein Gα16 (HEK293-hALXR-Gα16) were grown to 80% confluency in Growing Medium (GM). Cells were detached from culture dishes with a cell dissociation buffer (Invitrogen, 13151-014), and collected by centrifugation at 1,000 rpm at rt for 5 min in Assay Buffer (AB) (equal parts of Hank's BSS (Gibco, 14065-049) and DMEM without Phenol Red (Gibco, 11880-028)). After 60 min incubation at 37° C. under 5% CO2 in AB supplemented with 1 μM Fluo-4 (AM) (Invitrogen, F14202) and 20 mM HEPES (Gibco, 15630-056), the cells were washed and resuspended in AB. They were then seeded onto 384-well FLIPR assay plates (Greiner, 781091) at 50,000 cells in 70 μl per well and sedimented by centrifugation at 1,000 rpm for 1 min. Stock solutions of test compounds were made up at a concentration of 10 mM in DMSO, and serially diluted in AB to concentrations required for activation dose response curves. WKYMVm (Phoenix Peptides) was used as a reference agonist. A FLIPR Tetra instrument (Molecular Devices) was operated according to the manufacturer's standard instructions, adding 4 μl of test compound dissolved at 10 mM in DMSO and diluted prior to the experiment in assay buffer to obtain the desired final concentration. Changes in fluorescence were monitored before and after the addition of test compounds at lex=488 nm and lem=540 nm. Emission peak values above base level after compounds addition were exported after base line subtraction. Values were normalized to high-level control (WKYMVm compound, 10 nM final concentration) after subtraction of the base line value (AB addition).

Row | EC50 | SMILES
1 | 6.6 nM | COC(C)(C)c1coc(Cn2ncc(NC(=O)c3nc(C)oc3-c3cccc(C)c3)n2)n1 [Example 1, N-(2-((4-(2-Methoxypropan-2-yl)oxazol-2-yl)methyl)-2H-1,2,3-triazol-4-yl)-2-methyl-5-(m-tolyl)oxazole-4-carboxamide]
2 | 4.3 nM | COCc1coc(Cn2ncc(NC(=O)c3nc(C)oc3-c3ccccc3)n2)n1 [Example 3, N-(2-((4-(Methoxymethyl)oxazol-2-yl)methyl)-2H-1,2,3-triazol-4-yl)-2-methyl-5-phenyloxazole-4-carboxamide]
3 | 2.1 nM | COCc1coc(Cn2ncc(NC(=O)c3nc(C)oc3-c3cccc(Cl)c3)n2)n1 [Example 4, 5-(3-Chlorophenyl)-N-(2-((4-(methoxymethyl)oxazol-2-yl)methyl)-2H-1,2,3-triazol-4-yl)-2-methyloxazole-4-carboxamide]
4 | 5.6 nM | COCc1coc(Cn2ncc(NC(=O)c3nc(C)oc3-c3cccc(C(F)(F)F)c3)n2)n1 [Example 5, N-(2-((4-(Methoxymethyl)oxazol-2-yl)methyl)-2H-1,2,3-triazol-4-yl)-2-methyl-5-(3-(trifluoromethyl)phenyl)oxazole-4-carboxamide]
5 | 4 nM | COCc1coc(Cn2ncc(NC(=O)c3ncoc3-c3cccc(Cl)c3)n2)n1 [Example 6, 5-(3-Chlorophenyl)-N-(2-((4-(methoxymethyl)oxazol-2-yl)methyl)-2H-1,2,3-triazol-4-yl)oxazole-4-carboxamide]
6 | 17.5 nM | COCc1coc(Cn2ncc(NC(=O)c3ncoc3-c3cccc(OC)c3)n2)n1 [Example 7, N-(2-((4-(Methoxymethyl)oxazol-2-yl)methyl)-2H-1,2,3-triazol-4-yl)-5-(3-methoxyphenyl)oxazole-4-carboxamide]
7 | 8.8 nM | COCc1coc(Cn2ncc(NC(=O)c3nc(C)oc3-c3cccc(OC)c3)n2)n1 [Example 8, N-(2-((4-(Methoxymethyl)oxazol-2-yl)methyl)-2H-1,2,3-triazol-4-yl)-5-(3-methoxyphenyl)-2-methyloxazole-4-carboxamide]
8 | 3.7 nM | COCc1coc(Cn2ncc(NC(=O)c3nc(C)oc3-c3cccc(F)c3)n2)n1 [Example 9, 5-(3-Fluorophenyl)-N-(2-((4-(methoxymethyl)oxazol-2-yl)methyl)-2H-1,2,3-triazol-4-yl)-2-methyloxazole-4-carboxamide]
9 | 4.6 nM | COCc1coc(Cn2ncc(NC(=O)c3ncoc3-c3cccc(C)c3)n2)n1 [Example 10, N-(2-((4-(Methoxymethyl)oxazol-2-yl)methyl)-2H-1,2,3-triazol-4-yl)-5-(m-tolyl)oxazole-4-carboxamide]
10 | 7.4 nM | COCc1coc(Cn2ncc(NC(=O)c3nc(C)oc3-c3cccc(OC(F)(F)F)c3)n2)n1 [Example 11, N-(2-((4-(Methoxymethyl)oxazol-2-yl)methyl)-2H-1,2,3-triazol-4-yl)-2-methyl-5-(3-(trifluoromethoxy)phenyl)oxazole-4-carboxamide]
11 | 11.6 nM | COCc1coc(Cn2ncc(NC(=O)c3nc(C4CC4)oc3-c3cccc(C)c3)n2)n1 [Example 12, 2-Cyclopropyl-N-(2-((4-(methoxymethyl)oxazol-2-yl)methyl)-2H-1,2,3-triazol-4-yl)-5-(m-tolyl)oxazole-4-carboxamide]
12 | 5 nM | COCc1coc(Cn2ncc(NC(=O)c3ncoc3-c3ccccc3)n2)n1 [Example 13, N-(2-((4-(Methoxymethyl)oxazol-2-yl)methyl)-2H-1,2,3-triazol-4-yl)-5-phenyloxazole-4-carboxamide]
13 | 6.7 nM | CCOCc1coc(Cn2ncc(NC(=O)c3nc(C)oc3-c3cccc(C)c3)n2)n1 [Example 14, N-(2-((4-(ethoxymethyl)oxazol-2-yl)methyl)-2H-1,2,3-triazol-4-yl)-2-methyl-5-(m-tolyl)oxazole-4-carboxamide]
14 | 8.6 nM | CCOCc1coc(Cn2ncc(NC(=O)c3ncoc3-c3ccccc3)n2)n1 [Example 15, N-(2-((4-(ethoxymethyl)oxazol-2-yl)methyl)-2H-1,2,3-triazol-4-yl)-5-phenyloxazole-4-carboxamide]

same assay, conditions: HEK293-hALXR-Gα16 cells; Table 2, compound failing within formula I of WO 2009/077990

Row | EC50 | SMILES
15 | 1.5 nM | CC(=O)c1nc(Cn2ncc(NC(=O)c3ncoc3-c3ccccc3)n2)co1
16 | 0.9 nM | CC(=O)c1nc(Cn2ncc(NC(=O)c3nc(C)oc3-c3cccc(C)c3)n2)co1
17 | 8.1 nM | CC(=O)c1csc(Cn2ncc(NC(=O)c3ncoc3-c3ccccc3)n2)n1 [example 39]
18 | 93 nM | CC(=O)c1nc(Cn2ncc(NC(=O)c3ncoc3-c3ccccc3)n2)cs1 [example 45]
19 | 73 nM | CC(=O)c1ncc(Cn2ncc(NC(=O)c3ncoc3-c3ccccc3)n2)s1 [example 67]
20 | 88 nM | CC(=O)c1cnc(Cn2ncc(NC(=O)c3ncoc3-c3ccccc3)n2)s1 [example 73]

same assay, conditions: HEK293-hALXR-Gα16 cells; Table 2, reference compounds

Row | EC50 | SMILES
21 | 4810 nM | COCc1ncc(Cn2ncc(NC(=O)c3nc(C)oc3-c3cccc(C)c3)n2)s1 [reference compound 1, N-(2-((2-(Methoxymethyl)thiazol-5-yl)methyl)-2H-1,2,3-triazol-4-yl)-2-methyl-5-(m-tolyl)oxazole-4-carboxamide]
22 | 2540 nM | COCc1cnc(Cn2ncc(NC(=O)c3nc(C)oc3-c3cccc(C)c3)n2)s1 [reference compound 2, N-(2-((5-(Methoxymethyl)thiazol-2-yl)methyl)-2H-1,2,3-triazol-4-yl)-2-methyl-5-(m-tolyl)oxazole-4-carboxamide]
23 | 498 nM | COCc1ccc(Cn2ncc(NC(=O)c3ncoc3-c3ccccc3)n2)o1 [reference compound 3, N-(2-((5-(methoxymethyl)furan-2-yl)methyl)-2H-1,2,3-triazol-4-yl)-5-phenyloxazole-4-carboxamide]
24 | 2300 nM | COCc1ccc(Cn2ncc(NC(=O)c3ncoc3-c3ccccc3)n2)s1 [reference compound 4, N-(2-((5-(methoxymethyl)thiophen-2-yl)methyl)-2H-1,2,3-triazol-4-yl)-5-phenyloxazole-4-carboxamide]
25 | 48 nM | COCc1csc(Cn2ncc(NC(=O)c3ncoc3-c3ccccc3)n2)n1 [reference compound 5, N-(2-((4-(methoxymethyl)thiazol-2-yl)methyl)-2H-1,2,3-triazol-4-yl)-5-phenyloxazole-4-carboxamide]
26 | 146 nM | COCc1nc(Cn2ncc(NC(=O)c3ncoc3-c3ccccc3)n2)cs1 [reference compound 6, N-(2-((2-(methoxymethyl)thiazol-4-yl)methyl)-2H-1,2,3-triazol-4-yl)-5-phenyloxazole-4-carboxamide]
27 | 8130 nM | COCc1ncc(Cn2ncc(NC(=O)c3ncoc3-c3ccccc3)n2)s1 [reference compound 7, N-(2-((2-(methoxymethyl)thiazol-5-yl)methyl)-2H-1,2,3-triazol-4-yl)-5-phenyloxazole-4-carboxamide]
28 | 5950 nM | COCc1cnc(Cn2ncc(NC(=O)c3ncoc3-c3ccccc3)n2)s1 [reference compound 8, N-(2-((5-(methoxymethyl)thiazol-2-yl)methyl)-2H-1,2,3-triazol-4-yl)-5-phenyloxazole-4-carboxamide]
29 | 685 nM | COC(C)(C)c1nc(Cn2ncc(NC(=O)c3ncoc3-c3ccccc3)n2)co1 [reference compound 9, N-(2-((2-(2-methoxypropan-2-yl)oxazol-4-yl)methyl)-2H-1,2,3-triazol-4-yl)-5-phenyloxazole-4-carboxamide]
30 | 8.1 nM | COCc1nc(Cn2ncc(NC(=O)c3nc(C)oc3-c3cccc(C)c3)n2)co1 [reference compound 10, N-(2-((2-(Methoxymethyl)oxazol-4-yl)methyl)-2H-1,2,3-triazol-4-yl)-2-methyl-5-(m-tolyl)oxazole-4-carboxamide]
